Data from ChEMBL document CHEMBL5724914, “Linking interpersonal differences in gut microbiota composition and drug biotransformation activity” (2024).

Columns and labels:
[1] = human gut metagenome, 24 h, 2 µM
[2] = human gut metagenome, 24 h, 2 µM; remark: listed apart in the source
[3] = The drug is tested on Z-021 corresponding to metagenome with ENA study accession number: PRJEB37062 and ENA sample accession number: ERS12561820 for biotransformation under anaerobic condition. The drug concentrations were measured over 9 timepoints collected between 0 and 24 hours of incubation by liquid-chromatography-coupled mass spectrometry (LC–MS); settings: 2 µM
[4] = The drug is tested on WLS-039 corresponding to human gut metagenome with ENA study accession number: PRJEB37062 and ENA sample accession number: ERS12561746 for biotransformation under anaerobic condition. The drug concentrations were measured over 9 timepoints collected between 0 and 24 hours of incubation by liquid-chromatography-coupled mass spectrometry (LC–MS); settings: 2 µM
[5] = The drug is tested on Z-016 corresponding to mouse gut metagenome with ENA study accession number: PRJEB37062 and ENA sample accession number: ERS12561815 for biotransformation under anaerobic condition. The drug concentrations were measured over 9 timepoints collected between 0 and 24 hours of incubation by liquid-chromatography-coupled mass spectrometry (LC–MS); settings: 2 µM
[6] = human gut metagenome, 24 h, 2 µM; remark: listed apart in the source
[7] = human gut metagenome, 24 h, 2 µM; remark: listed apart in the source
[8] = The drug is tested on Z-019 corresponding to rat gut metagenome with ENA study accession number: PRJEB37062 and ENA sample accession number: ERS12561818 for biotransformation under anaerobic condition. The drug concentrations were measured over 9 timepoints collected between 0 and 24 hours of incubation by liquid-chromatography-coupled mass spectrometry (LC–MS); settings: 2 µM
[9] = The drug is tested on WLS-350 corresponding to human gut metagenome with ENA study accession number: PRJEB37062 and ENA sample accession number: ERS12561789 for biotransformation under anaerobic condition. The drug concentrations were measured over 9 timepoints collected between 0 and 24 hours of incubation by liquid-chromatography-coupled mass spectrometry (LC–MS); settings: 2 µM
[10] = The drug is tested on Z-020 corresponding to rabbit gut metagenome with ENA study accession number: PRJEB37062 and ENA sample accession number: ERS12561819 for biotransformation under anaerobic condition. The drug concentrations were measured over 9 timepoints collected between 0 and 24 hours of incubation by liquid-chromatography-coupled mass spectrometry (LC–MS); settings: 2 µM
[11] = The drug is tested on Z-017 corresponding to mouse gut metagenome with ENA study accession number: PRJEB37062 and ENA sample accession number: ERS12561816 for biotransformation under anaerobic condition. The drug concentrations were measured over 9 timepoints collected between 0 and 24 hours of incubation by liquid-chromatography-coupled mass spectrometry (LC–MS); settings: 2 µM
[12] = human gut metagenome, 24 h, 2 µM; remark: listed apart in the source
[13] = The drug is tested on Z-018 corresponding to pig gut metagenome with ENA study accession number: PRJEB37062 and ENA sample accession number: ERS12561817 for biotransformation under anaerobic condition. The drug concentrations were measured over 9 timepoints collected between 0 and 24 hours of incubation by liquid-chromatography-coupled mass spectrometry (LC–MS); settings: 2 µM
[14] = The drug is tested on Z-001 corresponding to mouse gut metagenome with ENA study accession number: PRJEB37062 and ENA sample accession number: ERS12561801 for biotransformation under anaerobic condition. The drug concentrations were measured over 9 timepoints collected between 0 and 24 hours of incubation by liquid-chromatography-coupled mass spectrometry (LC–MS); settings: 2 µM
[15] = human gut metagenome, 24 h, 2 µM; remark: listed apart in the source
[16] = human gut metagenome, 24 h, 2 µM; remark: listed apart in the source
[17] = The drug is tested on WLS-082 corresponding to human gut metagenome with ENA study accession number: PRJEB37062 and ENA sample accession number: ERS12561751 for biotransformation under anaerobic condition. The drug concentrations were measured over 9 timepoints collected between 0 and 24 hours of incubation by liquid-chromatography-coupled mass spectrometry (LC–MS); settings: 2 µM
[18] = The drug is tested on WLS-220 corresponding to human gut metagenome with ENA study accession number: PRJEB37062 and ENA sample accession number: ERS12561769 for biotransformation under anaerobic condition. The drug concentrations were measured over 9 timepoints collected between 0 and 24 hours of incubation by liquid-chromatography-coupled mass spectrometry (LC–MS); settings: 2 µM
[19] = human gut metagenome, 24 h, 2 µM; remark: listed apart in the source
[20] = human gut metagenome, 24 h, 2 µM; remark: listed apart in the source
Note: call rule not given here.

SMILES | Bacterial Biotransformation [1] | Bacterial Biotransformation [2] | Bacterial Biotransformation [3] | Bacterial Biotransformation [4] | Bacterial Biotransformation [5] | Bacterial Biotransformation [6] | Bacterial Biotransformation [7] | Bacterial Biotransformation [8] | Bacterial Biotransformation [9] | Bacterial Biotransformation [10] | Bacterial Biotransformation [11] | Bacterial Biotransformation [12] | Bacterial Biotransformation [13] | Bacterial Biotransformation [14] | Bacterial Biotransformation [15] | Bacterial Biotransformation [16] | Bacterial Biotransformation [17] | Bacterial Biotransformation [18] | Bacterial Biotransformation [19] | Bacterial Biotransformation [20]
CC(C)OC(=O)C(C)(C)Oc1ccc(C(=O)c2ccc(Cl)cc2)cc1 [FENOFIBRATE] | Compound metabolized | Compound metabolized | Compound NOT metabolized | Compound NOT metabolized | Compound metabolized | Compound metabolized | Compound metabolized | Compound NOT metabolized | Compound NOT metabolized | Compound metabolized | Compound metabolized | Compound metabolized | Compound metabolized | Compound NOT metabolized | Compound metabolized | Compound metabolized | Compound NOT metabolized | Compound metabolized | Compound NOT metabolized | Compound metabolized
O=C1NCC2(CCN(CCc3ccccc3)CC2)O1 [FENSPIRIDE] | Compound NOT metabolized | Compound NOT metabolized | Compound NOT metabolized | Compound NOT metabolized | Compound NOT metabolized | Compound metabolized | Compound NOT metabolized | Compound NOT metabolized | Compound NOT metabolized | Compound NOT metabolized | Compound NOT metabolized | Compound NOT metabolized | Compound NOT metabolized | Compound metabolized | Compound NOT metabolized | Compound NOT metabolized | Compound NOT metabolized | Compound NOT metabolized | Compound NOT metabolized | Compound NOT metabolized
OC(Cn1cncn1)(Cn1cncn1)c1ccc(F)cc1F [FLUCONAZOLE] | Compound NOT metabolized | Compound metabolized | Compound metabolized | Compound NOT metabolized | Compound NOT metabolized | Compound metabolized | Compound NOT metabolized | Compound NOT metabolized | Compound metabolized | Compound NOT metabolized | Compound NOT metabolized | Compound metabolized | Compound NOT metabolized | Compound NOT metabolized | Compound NOT metabolized | Compound metabolized | Compound metabolized | Compound NOT metabolized | Compound NOT metabolized | Compound metabolized
CNCCC(Oc1ccc(C(F)(F)F)cc1)c1ccccc1 (stereo not given) [FLUOXETINE] | Compound NOT metabolized | Compound NOT metabolized | Compound NOT metabolized | Compound NOT metabolized | Compound NOT metabolized | Compound NOT metabolized | Compound NOT metabolized | Compound NOT metabolized | Compound NOT metabolized | Compound NOT metabolized | Compound NOT metabolized | Compound NOT metabolized | Compound NOT metabolized | Compound NOT metabolized | Compound metabolized | Compound NOT metabolized | Compound NOT metabolized | Compound NOT metabolized | Compound NOT metabolized | Compound NOT metabolized
O=C(CCCN1CCC(O)(c2ccc(Cl)cc2)CC1)c1ccc(F)cc1 [HALOPERIDOL] | Compound NOT metabolized | Compound metabolized | Compound NOT metabolized | Compound metabolized | Compound NOT metabolized | Compound metabolized | Compound NOT metabolized | Compound NOT metabolized | Compound NOT metabolized | Compound NOT metabolized | Compound NOT metabolized | Compound NOT metabolized | Compound NOT metabolized | Compound NOT metabolized | Compound NOT metabolized | Compound metabolized | Compound metabolized | Compound metabolized | Compound NOT metabolized | Compound metabolized
CCCCC1=NC2(CCCC2)C(=O)N1Cc1ccc(-c2ccccc2-c2nnn[nH]2)cc1 [IRBESARTAN] | Compound metabolized | Compound metabolized | Compound NOT metabolized | Compound metabolized | Compound NOT metabolized | Compound metabolized | Compound metabolized | Compound NOT metabolized | Compound metabolized | Compound metabolized | Compound NOT metabolized | Compound metabolized | Compound metabolized | Compound metabolized | Compound NOT metabolized | Compound metabolized | Compound metabolized | Compound metabolized | Compound metabolized | Compound metabolized
